# Source: patent US20120088665A1, “FUNGICIDAL MIXTURES” (BASF SE, priority 2009, published 2012)
# Read-outs that look alike come from different tables or passages of the source.
# Tests used:
# Botrytis cinerea = assay: Activity against the gray mold pathogen Botrytis cinerea in the microtiter test (Botrci); format: cell-based; details: for inhibition of growth at 0.016 ppm / inhibition of growth at 0.063 ppm / inhibition of growth at 1 ppm / inhibition of growth at 4 ppm / inhibition of growth at 16 ppm / inhibition of growth at […]: Botrytis cinerea, 168 h, read-out: Observed activity; for inhibition of growth at 0.016 ppm: conc 0.016 ppm; for inhibition of growth at […]: conc 0.25 ppm
# Septoria tritici = assay: Activity against the Septoria leaf spot pathogen Septoria tritici in the microtiter test (Septtr); format: cell-based; details: single active compound; for inhibition of growth at 0.004 ppm: conc 0.004 ppm; for inhibition of growth at 0.016 ppm: conc 0.016 ppm; for inhibition of growth at 0.063 ppm: conc 0.063 ppm
# Phytophthora infestans = assay: microbe, parasite or virus in culture; format: cell-based
# Pyricularia oryzae = assay: microbe, parasite or virus in culture; format: cell-based; details: for Observed activity: Pyrior, single active compound
# Fusarium culmorum = assay: Activity against Fusarium culmorum in the microtiter test (Fusacu); format: cell-based; details: single active compound; for inhibition of growth at […] / inhibition of growth at 4 ppm / inhibition of growth at 16 ppm / inhibition of growth at 1 ppm / inhibition of growth at 0.063 ppm: Fusarium culmorum, 168 h, read-out: Observed activity; for inhibition of growth at […]: 0.25 ppm
# [1] = Zymoseptoria tritici, 168 h, read-out: Observed activity
# [2] = Zymoseptoria tritici, 168 h, conc 1 ppm, read-out: Observed activity
# [3] = Zymoseptoria tritici, 168 h, conc 0.25 ppm, read-out: Observed activity
# [4] = Pyricularia oryzae, 168 h, read-out: Observed activity
# [5] = Phytophthora infestans, 168 h, read-out: Observed activity
compound,measurement,setting,value
"1-(4-chlorophenyl)-3-(5-mercapto-[1,2,4]triazol-1-ylmethyl)-4,4-dimethylpentan-3-ol [I-9]",Observed activity,Botrytis cinerea; conc 4 ppm,23%
same,Observed activity,Septoria tritici; conc 1 ppm,20
same,Observed activity,Septoria tritici; conc 4 ppm,64
same,Observed activity,Phytophthora infestans; conc 16 ppm,52%
same,Observed activity,Pyricularia oryzae; conc 16 ppm,57
same,Observed activity,Fusarium culmorum; 16 ppm,4%
Fc1ccc([C@]2(Cn3cncn3)O[C@H]2c2ccccc2Cl)cc1 (racemic) [epoxiconazole],inhibition of growth at 0.016 ppm,Botrytis cinerea,7%
same,inhibition of growth at 0.063 ppm,Botrytis cinerea; conc 0.063 ppm,25%
same,inhibition of growth at 0.004 ppm,Septoria tritici; [1],4%
same,inhibition of growth at 0.016 ppm,Septoria tritici; [1],47%
same,inhibition of growth at […],Fusarium culmorum,0%
"CCCCCCCCc1c(CC)nc2ncnn2c1N [5-ethyl-6-octyl-[1,2,4]triazolo-[1,5-a]pyrimidin-7-ylamine]",inhibition of growth at 4 ppm,Fusarium culmorum; 4 ppm,2%
"CCCCCCCCc1c(CC)nc2ncnn2c1N [5-ethyl-6-octyl-[1,2,4]triazolo[1,5-a]pyrimidin-7-ylamine]",inhibition of growth at 1 ppm,Botrytis cinerea; conc 1 ppm,6%
same,inhibition of growth at 1 ppm,Septoria tritici; [2],0%
"CC1(C)CCC(Cc2ccc(Cl)cc2)C1(O)Cn1ncnc1S (stereo not drawn) [I-4, 5-(4-chlorobenzyl)-1-(5-mercapto-[1,2,4]triazol-1-ylmethyl)-2,2-dimethylcyclopentanol]",inhibition of growth at 1 ppm,Botrytis cinerea; conc 1 ppm,28%
same,melting point,,186 to 196 °C
same,inhibition of growth at […],Septoria tritici; [3],63%
same,inhibition of growth at 1 ppm,Septoria tritici; [2],68%
same,inhibition of growth at 4 ppm,Pyricularia oryzae; [4],3%
same,inhibition of growth at 16 ppm,Fusarium culmorum; 16 ppm,3%
"CC1COC(Cn2ncnc2S)(c2ccc(Oc3ccc(Cl)cc3)cc2Cl)O1 (stereo not drawn) [I-5, 2-{2-[2-chloro-4-(4-chlorophenoxy)phenyl]-4-methyl-[1,3]dioxolan-2-ylmethyl}-2H-[1,2,4]triazole-3-thiol]",inhibition of growth at 4 ppm,Botrytis cinerea; conc 4 ppm,36%
same,melting point,,73.4 °C
same,inhibition of growth at 1 ppm,Phytophthora infestans; [5],8%
"CCCCC(C#N)(Cn1ncnc1S)c1ccc(Cl)cc1 (stereo not drawn) [I-10, 2-(4-chlorophenyl)-2-(5-mercapto-[1,2,4]triazol-1-ylmethyl)hexanenitrile]",inhibition of growth at 1 ppm,Septoria tritici; [2],2%
same,inhibition of growth at 4 ppm,Phytophthora infestans; [5],2%
same,inhibition of growth at 16 ppm,Pyricularia oryzae; [4],8%
"CCCC(Cn1ncnc1S)c1ccc(Cl)cc1Cl (stereo not drawn) [I-16, 2-[2-(2,4-dichlorophenyl)pentyl]-2H-[1,2,4]triazole-3-thiol]",inhibition of growth at 4 ppm,Botrytis cinerea; conc 4 ppm,31%
same,inhibition of growth at 16 ppm,Phytophthora infestans; [5],47%
same,inhibition of growth at 1 ppm,Pyricularia oryzae; [4],1%
same,inhibition of growth at 16 ppm,Fusarium culmorum; 16 ppm,6%
"CCCC1COC(Cn2ncnc2S)(c2ccc(Cl)cc2Cl)O1 (stereo not drawn) [I-17, 2-[2-(2,4-dichlorophenyl)-4-propyl-[1,3]dioxolan-2-ylmethyl]-2H-[1,2,4]triazole-3-thiol]",inhibition of growth at 4 ppm,Botrytis cinerea; conc 4 ppm,33%
same,inhibition of growth at […],Septoria tritici; [3],38%
same,inhibition of growth at 16 ppm,Fusarium culmorum; 16 ppm,7%
"CC1(C)CC/C(=C\c2ccc(Cl)cc2)C1(O)Cn1ncnc1S (stereo not drawn) [I-22, 5-[1-(4-chlorophenyl)meth-(E)-ylidene]-1-(5-mercapto-[1,2,4]triazol-1-ylmethyl)-2,2-dimethylcyclopentanol]",inhibition of growth at 16 ppm,Botrytis cinerea; conc 16 ppm,8%
same,melting point,,176.5 °C
same,inhibition of growth at 16 ppm,"Septoria tritici; Zymoseptoria tritici, 168 h, conc 16 ppm, read-out: Observed activity",22%
same,inhibition of growth at 1 ppm,Phytophthora infestans; [5],6%
CC(C1CC1)C(O)(Cn1ncnc1S)c1ccc(Cl)cc1 (stereo not drawn) [I-23],Observed activity,Botrytis cinerea; conc 16 ppm,26%
same,Observed activity,Septoria tritici; conc 1 ppm,7
same,Observed activity,Septoria tritici; conc 4 ppm,9
"O=C(Nc1ccccc1-c1ccc(Cl)cc1)c1cccnc1Cl [II-24, boscalid]",inhibition of growth at […],Septoria tritici; [3],59%
same,inhibition of growth at 4 ppm,Pyricularia oryzae; [4],0%
same,inhibition of growth at 4 ppm,Fusarium culmorum; 4 ppm,0%
"Cn1cc(C(=O)Nc2ccccc2-c2cc(F)c(F)c(F)c2)c(C(F)F)n1 [N-(3′,4′,5′-trifluorobiphenyl-2-yl)-3-difluoromethyl-1-methyl-1H-pyrazole-4-carboxamide]",inhibition of growth at 0.016 ppm,Botrytis cinerea,9%
same,inhibition of growth at 0.004 ppm,Septoria tritici; [1],4%
N#Cc1c(Cl)c(Cl)c(Cl)c(C#N)c1Cl [chlorothalonil],inhibition of growth at 0.016 ppm,Botrytis cinerea,2%
same,inhibition of growth at 0.016 ppm,Septoria tritici; [1],8%
same,inhibition of growth at 0.016 ppm,Pyricularia oryzae; [4],0%
CC1CN(C2CCCCCCCCCCC2)CC(C)O1 (stereo not drawn) [dodemorph],inhibition of growth at […],Botrytis cinerea,7%
same,inhibition of growth at 1 ppm,Botrytis cinerea; conc 1 ppm,9%
same,inhibition of growth at 4 ppm,Botrytis cinerea; conc 4 ppm,33%
same,inhibition of growth at 0.063 ppm,Septoria tritici; [1],0%
same,inhibition of growth at […],Septoria tritici; [3],0%
same,inhibition of growth at 4 ppm,"Septoria tritici; Zymoseptoria tritici, 168 h, conc 4 ppm, read-out: Observed activity",23%
same,inhibition of growth at 4 ppm,Pyricularia oryzae; [4],1%
CC(Cc1ccc(C(C)(C)C)cc1)CN1C[C@@H](C)O[C@@H](C)C1 (stereo partly drawn) [fenpropimorph],inhibition of growth at 0.063 ppm,Botrytis cinerea; conc 0.063 ppm,16%
same,inhibition of growth at […],Botrytis cinerea,26%
same,inhibition of growth at 0.063 ppm,Septoria tritici; [1],3%
same,inhibition of growth at […],Septoria tritici; [3],2%
same,inhibition of growth at 0.063 ppm,Phytophthora infestans; [5],4%
same,inhibition of growth at 1 ppm,Pyricularia oryzae; [4],14%
same,inhibition of growth at 1 ppm,Fusarium culmorum,9%
O=C(NCCc1ncc(C(F)(F)F)cc1Cl)c1ccccc1C(F)(F)F [fluopyram],inhibition of growth at 0.016 ppm,Botrytis cinerea,0%
same,inhibition of growth at 0.063 ppm,Botrytis cinerea; conc 0.063 ppm,0%
same,inhibition of growth at […],Fusarium culmorum,0%
O=c1c2cc(F)ccc2nc(-n2cncn2)n1-c1ccc(Cl)cc1Cl [fluquinconazole],inhibition of growth at 4 ppm,Fusarium culmorum; 4 ppm,0%
OC(Cn1cncn1)(c1ccc(F)cc1)c1ccccc1F (stereo not drawn) [flutriafol],inhibition of growth at 4 ppm,Botrytis cinerea; conc 4 ppm,14%
same,inhibition of growth at 16 ppm,Botrytis cinerea; conc 16 ppm,42%
same,inhibition of growth at […],Septoria tritici; [3],3%
same,inhibition of growth at 16 ppm,Fusarium culmorum; 16 ppm,29%
CC(C)NC(=O)N1CC(=O)N(c2cc(Cl)cc(Cl)c2)C1=O [iprodione],inhibition of growth at 0.063 ppm,Septoria tritici; [1],11%
same,inhibition of growth at 1 ppm,Pyricularia oryzae; [4],24%
same,inhibition of growth at 1 ppm,Fusarium culmorum,3%
CO/N=C(/C(=O)OC)c1ccccc1COc1ccccc1C [kresoxim-methyl],inhibition of growth at […],Botrytis cinerea,3%
same,inhibition of growth at 1 ppm,Botrytis cinerea; conc 1 ppm,17%
same,inhibition of growth at 1 ppm,Phytophthora infestans; [5],47%
COCC(=O)N(c1c(C)cccc1C)C(C)C(=O)OC (stereo not drawn) [metalaxyl],inhibition of growth at […],Botrytis cinerea,1%
same,inhibition of growth at 1 ppm,Botrytis cinerea; conc 1 ppm,5%
same,inhibition of growth at 0.016 ppm,Septoria tritici; [1],0%
same,inhibition of growth at […],Septoria tritici; [3],0%
same,inhibition of growth at 1 ppm,Phytophthora infestans; [5],5%
same,inhibition of growth at 1 ppm,Pyricularia oryzae; [4],2%
CC1(C)CCC(Cc2ccc(Cl)cc2)C1(O)Cn1cncn1 (stereo not drawn) [metconazole],inhibition of growth at 0.063 ppm,Botrytis cinerea; conc 0.063 ppm,31%
same,inhibition of growth at 0.004 ppm,Septoria tritici; [1],0%
same,inhibition of growth at 0.016 ppm,Septoria tritici; [1],23%
same,inhibition of growth at 0.063 ppm,Fusarium culmorum,0%
same,inhibition of growth at […],Fusarium culmorum,37%
COc1cc(C)c(C(=O)c2c(OC)ccc(Br)c2C)c(OC)c1OC [metrafenone],inhibition of growth at 1 ppm,Botrytis cinerea; conc 1 ppm,0%
same,inhibition of growth at 1 ppm,Pyricularia oryzae; [4],11%
CNC(=O)/C(=N/OC)c1ccccc1CO/N=C(C)/C(=N/OC)C(/C)=N/OC [orysastrobin],Observed activity,Botrytis cinerea; conc 0.063 ppm,1%
OC(Cc1ccccc1Cl)(Cn1nc[nH]c1=S)C1(Cl)CC1 (stereo not drawn) [prothioconazole],inhibition of growth at 0.016 ppm,Botrytis cinerea,5%
same,inhibition of growth at 0.063 ppm,Botrytis cinerea; conc 0.063 ppm,17%
same,inhibition of growth at 0.004 ppm,Septoria tritici; [1],0%
same,inhibition of growth at […],Fusarium culmorum,0%
COC(=O)N(OC)c1ccccc1COc1ccn(-c2ccc(Cl)cc2)n1 [pyraclostrobin],inhibition of growth at […],"Septoria tritici; Zymoseptoria tritici, 168 h, conc 0.00025 ppm, read-out: Observed activity",5%
same,inhibition of growth at 0.004 ppm,Septoria tritici; [1],44%
same,inhibition of growth at 0.016 ppm,Septoria tritici; [1],75%
same,inhibition of growth at 0.016 ppm,Phytophthora infestans; [5],13%
same,inhibition of growth at 0.063 ppm,Phytophthora infestans; [5],26%
same,inhibition of growth at 0.004 ppm,Pyricularia oryzae; [4],25%
same,inhibition of growth at 0.016 ppm,Pyricularia oryzae; [4],54%
same,inhibition of growth at 0.063 ppm,Fusarium culmorum,0%
Cc1cc(C)nc(Nc2ccccc2)n1 [pyrimethanil],inhibition of growth at 0.063 ppm,Botrytis cinerea; conc 0.063 ppm,7%
same,inhibition of growth at 1 ppm,Septoria tritici; [2],0%
same,inhibition of growth at 4 ppm,Fusarium culmorum; 4 ppm,3%
CC(C)(C)C(O)(CCc1ccc(Cl)cc1)Cn1cncn1 (stereo not drawn) [tebuconazole],inhibition of growth at 0.063 ppm,Phytophthora infestans; [5],3%
same,inhibition of growth at 0.004 ppm,Pyricularia oryzae; [4],4%
"COC(=O)NC(=S)Nc1ccccc1NC(=S)NC(=O)OC [thiophanate-methyl, thiophanate methyl]",inhibition of growth at 1 ppm,Phytophthora infestans; [5],7%
same,inhibition of growth at 1 ppm,Pyricularia oryzae; [4],4%
CC1(C)CCC(=Cc2ccc(Cl)cc2)C1(O)Cn1cncn1 (stereo not drawn) [triticonazole],inhibition of growth at […],Botrytis cinerea,29%
same,inhibition of growth at 0.063 ppm,Septoria tritici; [1],13%
same,inhibition of growth at 1 ppm,Fusarium culmorum,17%
mancozeb,Observed activity,Botrytis cinerea; conc 1 ppm,8%
same,Observed activity,Septoria tritici; conc 4 ppm,23
same,Observed activity,Phytophthora infestans; conc 1 ppm,23%
same,Observed activity,Pyricularia oryzae; conc 4 ppm,67
same,Observed activity,Fusarium culmorum; 4 ppm,0%
metiram,Observed activity,Septoria tritici; conc 1 ppm,17
same,Observed activity,Pyricularia oryzae; conc 1 ppm,6
same,Observed activity,Pyricularia oryzae; conc 16 ppm,36
